Structures are written as SMILES. Some results are limits rather than exact numbers.

For assay [1], the target named is T1, human JAK2 (Homo sapiens, UniProt O60674).
T1 construct: The kinase domain of human JAK2 was amplified; GST (N); made in house; host or cells: Sf9 insect cells (baculovirus)
As to the kind of experiment: Alphascreen tyrosine kinase enzyme assay, JAK2 kinase domain. It counts as biochemical. The conditions noted are these: read-out: JAK2 IC50_nM. As to the method: For screening purposes, compounds (in 100% DMSO) were warmed at 37 degrees for at least 20 minutes before use. A […] stock was initially made in assay buffer, where the final concentration of DMSO was 0.3%. The stocks were then diluted in 384 well Optiplates (Packard) where the final concentration of the compound was […].
The kinase domain of human JAK2 was amplified from U937mRNA using the polymerase chain reaction with the following primers: […]
The JAK2 PCR products were cloned into the pDest20 destination vector (Gibco). The JAK2 plasmid was then transformed into competent DH10Bac cells (Gibco), and the recombinant baculovirus was prepared via Sf9 insect cell transfection.
Baculovirus preparations from each of the constructs were infected into either one or five liters of Sf9 cells (Invitrogen) grown in SF-900 medium (Invitrogen) to a cell density of approximately 1-2×10^6 cells/ml. Cells were infected with virus at a MOI of 0.8-3.0. Cells were harvested and lysed. Tyrosine kinase domains were purified by affinity chromatography on a glutathione-agarose column (Scientifix Pty. Ltd. catalog #: GSH-200).
Kinase assays were performed in 384 well Optiplates (Packard) using an Alphascreen Protein Tyrosine Kinase PY100 detection kit The compounds were pre-incubated with affinity purified PTK domain in the presence of phosphotyrosine assay buffer (10 mM HEPES, pH 7.5, 100 mM MgCl2, 25 mM NaCl, […] and 0.1% Tween 20) for 20 minutes. The compounds were then incubated with substrate in the presence of ATP. The substrate used was susbtrate-1 with the sequence biotin-EGPWLEEEEEAYGWMDF-NH2 [SEQ. ID. NO. 13] (final concentration […]). For HCK 80 μm ATP was used and incubated for 60 minutes. Alphascreen phosphotyrosine acceptor beads followed by streptavidin donor beads at a concentration of 1/100 in stop buffer were added to each well under subdued light and incubated for 2-3 hours., The Alphascreen plates were read on a Packard Fusion Alpha instrument.
(In general: Alpha assays give light when donor and acceptor beads are brought close together.)

For assay [2], the target named is T2, BaF3 TELJAK2 cells (BafT_J2) (Homo sapiens, UniProt O60674).
T2 construct: fused on or other part: TEL (ETV6) N-terminal part, coding nucleotides 1-487, serves as the oligomerising partner; It is fused through a Sal I site to the JAK2 kinase domain and expressed from pTRE2 in BaF3 cells bearing pTET-off; P41212 (Transcription factor ETV6)
As to the kind of experiment: Cellular screening, BaF3 TEL:JAK2 cells, Alamar Blue. It counts as cell-based. The conditions noted are these: 40 hr, read-out: BafT_J2 IC50_nM. As for the experimental part: (§1) For screening purposes, compounds were diluted in 96 well plates at a concentration of 20 μM. Plates were warmed at 37° C. for 30 minutes before the assay was performed.
The coding region encompassing nucleotides 1-487 of TEL was amplified by PCR using the oligonucleotides STEL (5′-GGAGGATCCTGATCTCTCTCGCTGTGAGAC-3′) [SEQ ID NO 14] and 3TEL (5′-AGGC GTCGACTTCTTCTTCATGGTTCTG-3′) [SEQ ID NO 15] and U937 mRNA as a template. A […] restriction site was incorporated into the STEL primer, and a Sal I restriction site was incorporated into the 3TEL primer. The regions encompassing the kinase domain of JAK2 (nucleotides 2994-3914; JAK2F 5′-ACGC GTCGACGGTGCCTTTGAAGACCGGGAT-3′ [SEQ ID NO 16]; JAK2R 5′-ATAGTTTAGCGGCCGCTCAGAATGAAGGTCATTT-3′) [SEQ ID NO 17] and JAK3 (nucleotides 2520-3469; JAK3F 5′-GAAGTCGACTATGCCTGCCAAGACCCCACGATCTT-3′) [SEQ ID NO 18] were generated by PCR using Taq DNA polymerase (Gibco/BRL) and […] as a template. A Sal I restriction site was incorporated into the forward primer of JAK2 and JAK3, a Not I site was incorporated into the JAK2 reverse primer and a Xba I site was added to the reverse primer of JAK3.
A TEL/Jak2 fusion was generated by digestion of the TELPCR product with BamH I/Sal I restriction enzymes, digestion of the JAK2 PCR product with Sal I/Not I restriction enzymes, followed by ligation and subcloning of the ligation product into the mammalian expression Vector pTRE 2 (Clontech), which was prepared by digestion with BamH I-Not I restriction enzymes, to give the TEL/Jak2 fusion plasmid pTELJAK2.
(§2) The growth factor dependant myelomonocytic cell line BaF3 bearing the pTET-off plasmid (Clontech) was transfected with either pTELJAK2 or pTELJAK3, and the transfected cells were selected for growth-factor independent cell growth. The BaF3 wild-type cells were cultured in DMEM containing 10% FCS, 10% WEHI 3B conditioned medium. The BaF3 TELJAK cells ([…]) were cultured in DMEM 10% Tet-System Approved FBS (without WEHI 3B conditioned medium).
(§3) Cell suspensions were prepared by harvesting cells from culture (the cells used in this test were in late log phase growth with high viability.) Cells were diluted in the appropriate growth medium, as described above, to 1.1× final concentration (from 50,000 cell/mL to 200,000 cell/mL, depending on cell line).
(§4) Compounds to be tested were added (10 μL, 10× final concentration) to a flat bottomed 96-well plate. The cellular suspension (90 μL per well) was then added, and the plate incubated for 40 hr at 37° C., 5% CO2. Alamar Blue 10 μL per well was added and the plates returned to the incubator for a further 4-6 hours. The plates were then read at 544 nm.
In general terms: Resazurin is reduced to fluorescent resorufin, in cell work by metabolically active cells.

The test system of assay [3] is BaF3 wild-type cells. As to the kind of experiment: Cellular screening, BaF3 wild-type cells, Alamar Blue. It counts as cell-based. The note with it: Mus musculus, 40 hr, read-out: BAF3wt IC50_nM. As for the experimental part:
as §1, §2, §3, §4

In assay [4] the test system is CTLL2. As to the kind of experiment: Cellular screening, CTLL2 cells, Alamar Blue. In kind it is cell-based. The note with it: Mus musculus, CTLL-2, read-out: CTLL2 IC50_nM. As for the experimental part: as §3, §4

T2 sequence (O60674 whole entry, change not shown, the tested form may be a part): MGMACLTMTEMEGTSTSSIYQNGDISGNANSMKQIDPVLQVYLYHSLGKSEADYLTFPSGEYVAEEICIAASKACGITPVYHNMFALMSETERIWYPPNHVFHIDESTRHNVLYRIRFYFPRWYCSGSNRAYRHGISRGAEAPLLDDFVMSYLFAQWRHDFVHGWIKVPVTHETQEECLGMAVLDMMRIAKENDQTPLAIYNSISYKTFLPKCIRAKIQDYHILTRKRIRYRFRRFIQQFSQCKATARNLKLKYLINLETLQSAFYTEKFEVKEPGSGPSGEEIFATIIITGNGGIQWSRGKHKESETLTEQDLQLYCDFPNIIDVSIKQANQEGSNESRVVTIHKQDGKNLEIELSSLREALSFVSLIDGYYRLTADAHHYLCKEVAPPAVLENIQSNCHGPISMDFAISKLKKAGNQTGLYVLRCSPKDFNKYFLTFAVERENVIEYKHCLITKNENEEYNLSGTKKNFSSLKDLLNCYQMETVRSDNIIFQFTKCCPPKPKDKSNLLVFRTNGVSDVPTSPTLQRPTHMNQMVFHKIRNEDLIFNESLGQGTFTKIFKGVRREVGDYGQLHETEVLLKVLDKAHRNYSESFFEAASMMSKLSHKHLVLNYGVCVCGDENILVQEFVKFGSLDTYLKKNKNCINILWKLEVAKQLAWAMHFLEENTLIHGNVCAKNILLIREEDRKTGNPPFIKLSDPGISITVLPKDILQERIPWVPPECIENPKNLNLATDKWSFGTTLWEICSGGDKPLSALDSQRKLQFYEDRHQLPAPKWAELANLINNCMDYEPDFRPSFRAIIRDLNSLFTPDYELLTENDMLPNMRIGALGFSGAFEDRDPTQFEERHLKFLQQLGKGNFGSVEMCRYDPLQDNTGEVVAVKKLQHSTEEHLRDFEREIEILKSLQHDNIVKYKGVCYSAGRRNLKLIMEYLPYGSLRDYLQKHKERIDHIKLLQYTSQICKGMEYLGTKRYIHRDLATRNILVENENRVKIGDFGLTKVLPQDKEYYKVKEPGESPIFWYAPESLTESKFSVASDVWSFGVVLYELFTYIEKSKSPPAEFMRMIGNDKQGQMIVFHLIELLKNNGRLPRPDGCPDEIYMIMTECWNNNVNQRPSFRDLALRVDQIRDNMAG
T1 sequence (O60674 849-1124 limits assumed): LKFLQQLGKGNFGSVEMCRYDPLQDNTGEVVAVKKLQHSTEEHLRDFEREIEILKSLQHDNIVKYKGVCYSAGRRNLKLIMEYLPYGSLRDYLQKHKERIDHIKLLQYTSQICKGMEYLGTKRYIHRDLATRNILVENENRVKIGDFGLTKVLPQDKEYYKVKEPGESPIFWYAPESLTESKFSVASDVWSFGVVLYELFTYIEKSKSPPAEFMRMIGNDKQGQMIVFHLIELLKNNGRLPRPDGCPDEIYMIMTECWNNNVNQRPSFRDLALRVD

Consider `CC#CC(=O)Nc1cccc(Nc2nccc(SC)n2)c1` [Compound 8, N-(3-(4-(methylthio)pyrimidin-2-ylao)phenyl)but-2-ynamide], for which the IC50 is more than 1 µM in assay [1], less than 20 µM in assay [3] and less than 20 µM in assay [4]. In assay [2], the GI50 is less than 5 µM.
On to `C=CC(=O)Nc1ccc(Nc2nccc(SC)n2)cc1` [Compound 13, N-(4-(4-(methylthio)pyrimidin-2-ylao)phenyl)acrylamide], for which the IC50 in assay [1] is more than 1 µM; in assay [3], more than 20 µM; in assay [4] it was more than 20 µM. Besides, the GI50 in assay [2] was less than 20 µM.
Regarding `C=CC(=O)Nc1cccc(Nc2nccc(Sc3ccccc3)n2)c1` [Compound 16, N-(3-(4-(phenylthio)pyrimidin-2-ylamino)phenyl)acrylamide], the IC50 was more than 1 µM in assay [1], less than 20 µM in assay [3] and less than 5 µM in assay [4]. For the same molecule, in assay [2], the GI50 is less than 5 µM.
On to `CC#CC(=O)Nc1cccc(Sc2ccnc(Nc3cccc(N4CCOCC4)c3)n2)c1` [Compound 232, N-(3-(2-(3-morpholinophenylao)pyrimidin-4-ylthio)phenyl)but-2-ynamide], for which the IC50 in assay [1] is more than 1 µM. In addition, in assay [2], the GI50 was less than 20 µM.
For `CC#CC(=O)Nc1ccc(Sc2ccnc(Nc3cccc(N4CCOCC4)c3)n2)cc1` [Compound 233, N-(4-(2-(3-morpholinophenylao)pyrimidin-4-ylthio)phenyl)but-2-ynamide], the IC50 in assay [1] is more than 1 µM; in assay [3], less than 5 µM; in assay [4] it was less than 5 µM. For the same molecule, in assay [2], the GI50 was less than 5 µM.
Consider `C=CC(=O)Nc1ccc(Sc2nc(Nc3cccc(OC)c3)ncc2C)cc1` [Compound 235, N-(4-(2-(3-methoxyphenylao)-5-methylpyrimidin-4-ylthio)phenyl)acrylamide], for which the IC50 in assay [1] was more than 1 µM. Moreover, in assay [2], the GI50 was less than 20 µM.
In the case of `C=CC(=O)Nc1ccc(Sc2nc(Nc3cccc(N4CCOCC4)c3)ncc2C)cc1` [Compound 237, N-(4-(5-methyl-2-(3-morpholinophenylao)pyrimidin-4-ylthio)phenyl)acrylamide], the IC50 is more than 1 µM in assay [1], less than 1 µM in assay [3] and less than 1 µM in assay [4]. Further, the GI50 in assay [2] is less than 5 µM.
Consider `C=CC(=O)Nc1ccc(Sc2ccnc(Nc3ccc(N4CCN(C)CC4)cc3)n2)cc1` [Compound 238, N-(4-(2-(4-(4-methylpiperazin-1-yl)phenylao)pyrimidin-4-ylthio)phenyl)acrylamide], for which the IC50 in assay [1] was more than 1 µM. In addition, the GI50 in assay [2] was less than 5 µM.
Take `COc1ccc(Nc2ncc(C)c(Sc3ccc(N)cc3)n2)cc1OC` [Compound 240, 4-(4-aophenylthio)-N-(3,4-dimethoxyphenyl)-5-methylpyrimidin-2-ae]: the IC50 was more than 1 µM in assay [1], less than 1 µM in assay [3] and less than 5 µM in assay [4]. The GI50 in assay [2] is less than 5 µM.
For `C=CC(=O)Nc1ccc(Sc2nc(Nc3ccc(C)c(Br)c3)ncc2C)cc1` [Compound 242, N-(4-(2-(3-bromo-4-methylphenylao)-5-methylpyrimidin-4-ylthio)phenyl)acrylamide], the IC50 in assay [1] was more than 1 µM; in assay [3], more than 20 µM; in assay [4] it was more than 20 µM. Further, in assay [2], the GI50 was more than 20 µM.
On to `Cc1cnc(Nc2ccc(N3CCN(C)CC3)cc2)nc1Sc1ccc(N)cc1` [Compound 244, 4-(4-aophenylthio)-5-methyl-N-(4-(4-methylpiperazin-1-yl)phenyl)pyrimidin-2-ae], for which the IC50 is less than 0.5 µM in assay [1], less than 5 µM in assay [3] and less than 5 µM in assay [4]. In addition, the GI50 in assay [2] is less than 5 µM.
With `Cc1cnc(Nc2cccc(N3CCN(C)CC3)c2)nc1Sc1ccc(N)cc1` [Compound 245, 4-(4-aophenylthio)-5-methyl-N-(3-(4-methylpiperazin-1-yl)phenyl)pyrimidin-2-ae], the IC50 in assay [1] was less than 0.5 µM; in assay [3] it was less than 1 µM; in assay [4], less than 5 µM. Also, in assay [2], the GI50 was less than 1 µM.
On to `C=CC(=O)Nc1ccc(Sc2nc(Nc3ccc(N4CCN(C)CC4)c(OC)c3)ncc2C)cc1` [Compound 249, N-(4-(2-(3-methoxy-4-(4-methylpiperazin-1-yl)phenylao)-5-methylpyrimidin-4-ylthio)phenyl)acrylamide], for which the IC50 in assay [1] was more than 1 µM; in assay [3], less than 5 µM; in assay [4], less than 1 µM. In addition, the GI50 in assay [2] was less than 5 µM.
In the case of `Cc1cnc(Nc2ccc(N3CCOCC3)cc2)nc1Sc1ccc(N)cc1Cl` [Compound 251, 4-(4-ao-2-chlorophenylthio)-5-methyl-N-(4-morpholinophenyl)pyrimidin-2-ae], the figures for the IC50 in assay [1], in assay [3] and in assay [4] were more than 1 µM, more than 20 µM and more than 20 µM, respectively. Besides, the GI50 in assay [2] was more than 20 µM.
For the molecule `C=CC(=O)Nc1ccc(Sc2nc(Nc3ccc(N4CCC(CO)CC4)cc3)ncc2Br)cc1` [Compound 253, N-(4-(5-bromo-2-(4-(4-(hydroxymethyl)piperidin-1-yl)phenylao)pyrimidin-4-ylthio)phenyl)acrylamide], the IC50 in assay [1] is more than 1 µM; in assay [3], more than 20 µM; in assay [4], less than 1 µM. The GI50 in assay [2] is less than 20 µM.
In the case of `C=CC(=O)Nc1ccc(Sc2nc(Nc3ccc(N4CCOCC4)nc3)ncc2C)cc1` [Compound 254, N-(4-(5-methyl-2-(6-morpholinopyridin-3-ylao)pyrimidin-4-ylthio)phenyl)acrylamide], the IC50 was more than 1 µM in assay [1], less than 5 µM in assay [3] and less than 1 µM in assay [4]. Besides, the GI50 in assay [2] was less than 5 µM.
As for `C=CC(=O)Nc1ccc(Sc2nc(Nc3cccc(N4CCOCC4)c3)ncc2I)cc1` [Compound 269, N-(4-(5-iodo-2-(3-morpholinophenylao)pyrimidin-4-ylthio)phenyl)acrylamide], the IC50 in assay [1] was more than 1 µM. The GI50 in assay [2] was less than 20 µM.
The corresponding values for `C=CC(=O)Nc1ccc(Sc2ccnc(Nc3cccc(CO)c3)n2)cc1` [Compound 278, N-(4-(2-(3-(hydroxymethyl)phenylao)pyrimidin-4-ylthio)phenyl)acrylamide] are more than 1 µM and less than 5 µM.

The values above are taken from patent US8846704B2, “Thiopyrimidine-based compounds and uses thereof” (YM Biosciences Austraila Pty Ltd, priority 2007, dated 2014).
